Source: paper PMC4669759 (Cell Death & Disease, 2015)

How the values were obtained:
[1] = target: MCL-1 (Homo sapiens, UniProt Q07820); test: MCL-1 protein levels by immunoblotting in HCC-1806 cells; type: cell-based; design: endogenous in cells; host or cells: HCC-1806; conditions: immunoblot
Procedure: Figure 1 MCL-1 levels are elevated in cancer cells after treatment with MCL-1-binding small molecules. (a) H929 multiple myeloma cells were treated for 4 h with 10 μM A-1210477 before immunopreciptating MCL-1. […] A control H929 lysate was run in lane 1, and an immunoprecipitation with a non-specific antibody (Ig) was run in lane 2. The positions of molecular weight markers (specified in kiloDaltons) are indicated on the left. (b) HCC-1806 breast cancer cells were incubated with increasing concentrations of A-1210477 (0.1, 0.5, 1, 5, 10, 15, or 20 μM) or bortezomib (2, 10, or 50 nM) for 8 h before assessing MCL-1 and NOXA levels by immunoblotting. β-Actin was probed as a protein loading control. The lower graph depicts reverse transcriptase-PCR quantification of MCL1 mRNA from HCC-1806 cells treated for 8 h with similar concentrations of A-1210477. (c) HCC-1806 cells were incubated with increasing concentrations (0.1, 0.5, 1, 5, 10, and 20 μM) of A-954248, A-962653, or A-1248767 for 24 h before assessing MCL-1 and BCL-XL levels by immunoblotting. β-Actin was probed as a protein loading control
Cells were scraped into cold PBS, pelleted, and then resuspended in 100–200 μl ice-cold insect cell lysis buffer supplemented with protease inhibitors (BD Biosciences Pharmingen, San Diego, CA, USA). Cells were lysed by sonication, and the debris was cleared in a microcentrifuge. […]

[2] = target: T1, MCL-1–NOXA interactions (Homo sapiens, UniProt Q07820); test: Mammalian two-hybrid assay, MCL-1–NOXA, HeLa cells; type: cell-based; conditions: 24 h, luciferase two-hybrid
T1 construct: expressed in transfected cells; host or cells: HeLa cells stably expressing a GAL4-luciferase reporter
Procedure: (§1) (a) H929 cells were treated with increasing concentrations of A-1210477 for 4 h. […] All data represent the mean of triplicate experiments, with error bars indicating the S.D. (b) Quantitative measurement of protein–protein interactions using a luciferase-based mammalian two-hybrid assay. […] All data represent the means of triplicate experiments, with error bars indicating the S.Ds.
(§2) HeLa cells stably expressing a GAL4-luciferase reporter were seeded into 10 cm dishes at 5 × 10^5 cells per plate. In all, 24 μg of a plasmid expressing both the ‘bait' and ‘prey' fusion proteins (GAL4DBD-BIM and VP16AD-BCL-2, GAL4DBD-BCL-XL and VP16AD- BCL-XS, or GAL4DBD-MCL-1 and VP16AD-NOXA, respectively) were mixed with 1.5 ml OptiMEM (Invitrogen). Separately, 24 μl Lipofectamine 2000 (Invitrogen) were mixed with 1.5 ml OptiMEM. Both solutions were incubated for 5 min (RT) and then mixed together for 20 min. Three milliliters of the mixture was added to cells in 12 ml culture medium lacking antibiotics, incubated at 37 °C for 24 h, and then transferred to 96-well plates at 20 000 cells per well. Compounds were added in half-log dilutions, starting from 1 μM and ending at 0.0001 μM for 24 h, and luciferase activity was assessed using ONE-Glo reagent (Promega). All data were plotted as the percentage of complex remaining relative to untreated controls.

[3] = target: T2, BCL-2–BIM interactions (Homo sapiens, UniProt P10415); test: Mammalian two-hybrid assay, BCL-2–BIM, HeLa cells; type: cell-based; conditions: 24 h, luciferase two-hybrid
T2 construct: expressed in transfected cells; host or cells: HeLa cells stably expressing a GAL4-luciferase reporter
Procedure: as §1, §2

[4] = test system: EJ-1 cells; test: Navitoclax / A-1210477 combination cell viability, EJ-1 cells; type: cell-based; conditions: EJ-1, 48 h
Procedure: Figure 6 A-1210477 synergizes with navitoclax to kill hematological and solid tumor cell lines. BxPC-3, EJ-1, H23, and OPM-2 cells were treated with increasing concentrations of navitoclax in the presence or absence of increasing concentrations of A-1210477 for 48 h before assessing cell viability. All data points represent the means of triplicate experiments, with error bars indicating the S.E.M. TEXT PRINTED IN THE PICTURE: A-1210477 + navitoclax: Bliss sum (BxPC-3): 716; Bliss sum (EJ-1): 464; Bliss sum (H23): 76; Bliss sum (OPM-2): 946 DOUBTS OF THE COPYIST ABOUT THIS PICTURE: The Bliss sums apply to the combination of A-1210477 and navitoclax. The picture prints the two names separately (legend heading and axis title), not as one joined label.
(§3) Adherent cell lines were seeded at 50 000 cells per well in 96-well plates and treated for 48 h with compounds diluted in half-log steps starting at 30 μM and ending at 0.001 μM. Multiple myeloma cell lines were seeded at 15 000–20 000 cells per well and treated similarly. Effects on proliferation and viability were determined using CellTiter-Glo reagent from Promega (Madison, WI, USA) according to the manufacturer's instructions. IC50 values were determined by non-linear regression analysis of the concentration response data.

[5] = target: T3, MCL-1–BIM complexes (Homo sapiens, UniProt Q07820); test: Co-immunoprecipitation–electrochemiluminescent ELISA of MCL-1–BIM complexes in H929 cells; type: cell-based; conditions: 4 h
T3 construct: endogenous in cells; host or cells: H929
Procedure: as §1
After compound treatments, cells were lysed in buffer containing 1% CHAPS, 10 mM HEPES, and 150 mM NaCl with protease inhibitor cocktail (Roche, Indianapolis, IN, USA). In all, 100 μg of cell lysate was added to each well of a Meso Scale Discovery (Rockville, MD, USA) 96-well plate precoated with biotinylated anti-MCL-1 antibody (clone RC13) from Thermo Fisher Scientific. MCL-1-BIM complexes were detected with rabbit anti-BIM antibody (clone Y36) from Abcam, followed by Sulfo-tagged anti-rabbit antibody (Meso Scale Discovery; cat no. R32AB-5) and Meso Scale Discovery reading buffer with surfactant (cat. no. R92TC-2) according to the manufacturer's recommendations. Each step was followed by washing three times with PBS-T (PBS+0.1% Tween-20).

[6] = test system: H2110 cells; test: Cell viability, H2110 cells; type: cell-based, human
Procedure: Figure 5 A-1210477 kills MCL-1-dependent NSCLC cancer cell lines. NSCLC cell lines (a) H2110 or (c) H23 were transfected with a construct expressing the MCL1 CDS tagged with a Flag epitope or empty control vector. These cells were subsequently transfected with siRNAs targeting the MCL1 CDS, the MCL1 3′ UTRa or UTRb, or a scrambled control sequence. Cell viability was assessed 72 h later with MCL-1 and Flag immunoblots performed in parallel. (b) H2110 or (d) H23 cells were treated with increasing concentrations of A-1210477 for 72 h before assessing cell viability.
as §3

MCL-1, sequence (Q07820 whole entry): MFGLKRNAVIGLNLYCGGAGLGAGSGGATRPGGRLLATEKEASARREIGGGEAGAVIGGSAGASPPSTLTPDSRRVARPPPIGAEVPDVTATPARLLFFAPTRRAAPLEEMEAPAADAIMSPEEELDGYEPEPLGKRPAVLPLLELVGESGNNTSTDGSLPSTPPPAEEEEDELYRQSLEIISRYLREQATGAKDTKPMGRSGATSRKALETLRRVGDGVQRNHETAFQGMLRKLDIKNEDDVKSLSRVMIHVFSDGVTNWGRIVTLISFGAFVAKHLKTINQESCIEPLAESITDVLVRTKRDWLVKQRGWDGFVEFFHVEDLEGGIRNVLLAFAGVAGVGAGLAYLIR
T2 sequence (P10415 whole entry, the tested form may be a part): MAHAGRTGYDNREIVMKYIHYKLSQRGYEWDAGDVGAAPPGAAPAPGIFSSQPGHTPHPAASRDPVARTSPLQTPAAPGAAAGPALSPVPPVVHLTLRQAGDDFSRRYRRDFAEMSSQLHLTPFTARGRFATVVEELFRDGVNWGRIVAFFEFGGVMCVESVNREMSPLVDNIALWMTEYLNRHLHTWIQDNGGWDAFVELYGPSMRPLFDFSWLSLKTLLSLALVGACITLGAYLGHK
T3 sequence (Q07820 whole entry, one chain of several): as the sequence (Q07820 whole entry) above
T1 sequence (Q07820 whole entry, the tested form may be a part): as the sequence (Q07820 whole entry) above

Cc1nn(C)c(COc2ccc(N3CCN(S(=O)(=O)N(C)C)CC3)cc2)c1-c1cccc2c(CCCOc3cccc4ccccc34)c(C(=O)O)n(CCN3CCOCC3)c12 [A-1210477]
effect on MCL-1 protein levels ([1]; 0.1-20 μM): triggered MCL-1 elevation
lowest concentration at which increases in MCL-1 protein could be observed ([1]; 8 h or 24 h): 0.5 µM
IC50 [2]: ~1 µM
effect on BCL-2–BIM interactions [3]: no effect
potentiation of navitoclax [4]: substantially shifted the dose–response curve of navitoclax
IC50, reduction of BIM co-immunoprecipitated with MCL-1 [5]: low-μM range
IC50 ([6]; H2110): < 10 µM
EC50 ([6]; H2110, 72 h): 5.3 µM
